Test results published in article PMC10419416, “Fighting Pseudomonas aeruginosa Infections: Antibacterial and Antibiofilm Activity of D-Q53 CecB, a Synthetic Analog of a Silkworm Natural Cecropin B Variant” (International Journal of Molecular Sciences, 2023).
In brackets after ≈: the same amount, converted by molar mass. Like-named read-outs stand apart in the source and are kept apart here.

Tests used:
P. aeruginosa elastase = system: T1, P. aeruginosa elastase; test: Enzymatic digestion with P. aeruginosa elastase, RP-HPLC; format: in vitro ADME; details: isolated enzyme elastase; peptide 1 mg/mL in 10 mM Tris-HCl pH 7.5, 20 U P. aeruginosa elastase, 37 °C, 30 min, RP-HPLC C18 peak integration; read-out: % of full-length peptide
T1 construct: purchased Elastin Products Company
Procedure: (§1) L- and D-Q53 CecB peptides, as well as the human LL-37 peptide (Merck, Burlington, MA, USA), were dissolved in 10 mM Tris-HCl, pH 7.5, at a final concentration of 1 mg/mL. Subsequently, 120 μL of each peptide solution were incubated at 37 °C with 20 U of human leukocyte elastase (Merck) or P. aeruginosa elastase (Elastin Products Company, Owensville, MO, USA) and 5 μL of 10 mM Tris-HCl, pH 7.5. At given time intervals (30, 60, 120, and 300 min), a volume corresponding to 30 μg of each peptide was diluted in 70 μL of 1% trifluoroacetic acid (TFA) to stop the reaction. Peptide suspensions,v without any enzyme (undigested controls), were processed in parallel. Each solution was analyzed by RP-HPLC, using a Phenomenex LC C18 analytical column (300 Å, […], 250 × 4.6 mm; Phenomenex, Torrance, CA, USA) and a Widepore C18 security guard cartridge (4 × 3.0 mm; Phenomenex, Torrance, CA, USA), in a 30 min-linear Acetonitrile (ACN) gradient (from 0% to 40% for L- and D-Q53 CecB peptides; from 20% to 60% for LL-37). A Waters Alliance 2695 Separations Module connected to a 996 PDA (Waters, Milford, MA, USA) was employed for RP-HPLC.

[1] = system: T2, human neutrophil elastase; test: Enzymatic digestion with human neutrophil elastase, RP-HPLC; format: in vitro ADME; details: isolated enzyme elastase; peptide 1 mg/mL in 10 mM Tris-HCl pH 7.5, 20 U human leukocyte elastase, 37 °C, 5 h (300 min), RP-HPLC C18 peak integration; read-out: % of intact peptide
T2 construct: purchased Merck
Procedure: as §1

[2] = system: P. aeruginosa ATCC 27853, non-mucoid strain; format: cell-based, Pseudomonas aeruginosa; details: for biofilm biomass vs untreated controls (biofilm formation): 24 h
Procedure: (§2) An ON bacterial culture was diluted to 2 × 10^6 cells/mL in an LB medium. 50 µL/well were seeded in a sterile non-treated polystyrene 96-well plate (Corning) and added with 50 µL LB medium containing serial dilutions of each compound (final concentrations of L- and D-Q53 CecB peptides: from 0.034 to 17.6 µM; final concentrations of tobramycin: 0.27 and 0.53 μM, and from 2.14 to 17 μM). Each condition was tested in three-six replicates. Wells containing untreated bacteria (negative controls) or LB medium only (blank) were followed in parallel. Each plate was incubated for 24 h at 37 °C without agitation. After washing twice, samples were stained with a 0.1% crystal violet solution for 20 min, washed three times, and incubated in 30% acetic acid for 20 min, as in [74]. Plates were read at 595 nm using a microplate reader. For each sample, the biofilm biomass percentage was calculated relative to that of the untreated control showing the highest OD value, set equal to 100%. Each experiment was performed at least twice.

[3] = system: P. aeruginosa ATCC 25668, mucoid strain; format: cell-based, Pseudomonas aeruginosa; details: for biofilm biomass vs untreated controls (biofilm formation): 24 h
Procedure: as §2

[4] = system: P. aeruginosa ATCC 27853, non-mucoid strain; test: Degradation of pre-formed 24 h old biofilm, crystal violet; format: cell-based, Pseudomonas aeruginosa; details: 1 h; L-Q53 CecB 1/2 to 8 MIC, tobramycin 1 to 8 MIC
Procedure: (§3) One hundred μL of bacteria (1 × 10^6 cells/mL), derived from a fresh ON culture, were seeded in a sterile non-treated polystyrene 96-well plate (Corning) and incubated for 24 h at 37 °C without agitation. […] Evaluation of biofilm biomass was performed using a crystal violet assay as described above (Section 4.8). Experiments were performed two-four times.

[5] = system: P. aeruginosa ATCC 25668, mucoid strain; test: as above; format: cell-based, Pseudomonas aeruginosa; details: 1 h; L-Q53 CecB 1/2 to 8 MIC (except 4 MIC), tobramycin 1 to 8 MIC
Procedure: as §3

[6] = system: P. aeruginosa PAO1-L strain; test: microbe, parasite or virus in culture; format: cell-based, Pseudomonas aeruginosa; details: Pseudomonas aeruginosa, value between parentheses, 24 h, 37 °C, plating on LBA
Procedure: (§4) The following strains were used: P. aeruginosa ATCC 27853, ATCC 25668, and PAO1-L (Lausanne subline). All strains were grown at 37 °C in Luria Bertani (LB) medium or in Luria Bertani Agar (LBA) plates.
(§5) The antibacterial activities of L- and D-Q53 CecB were evaluated by determining (i) the MIC and (ii) the MBC. Tobramycin (Merck) was used as an antibiotic control. (i) An overnight (ON) bacterial culture was diluted to 1 × 10^6 cells/mL in LB medium. 50 µL/well were seeded in sterile polypropylene 96-well plates (Corning, Corning, NY, USA) and added with 50 µL LB medium, containing serial dilutions of each compound (final concentrations of L- and D-Q53 CecB peptides from 1.1 to 35.2 µM; final concentrations of tobramycin from 0.26 to 17 μM; each condition in triplicate). Microbial suspensions in the growing medium (positive control) and wells with only the medium (negative controls) were processed in parallel. Plates were incubated 24 h at 37 °C with agitation (300 rpm), and the absorbance was measured at 600 nm in a microplate reader. The MIC was considered as the lowest concentration determining a delta optical density at 600 nm (ΔOD600) equal to 0 ± 0.05. The ΔOD600 was determined by subtracting the OD600 recorded at time 0 from that obtained after 24 h. Each experiment was performed at least three times. […] For each sample, 100 μL of 1:10, 1:100, and 1:1000 dilutions were plated on LBA plates, and colonies were counted after 24 h at 37 °C. […] Each experiment was performed at least twice.

[7] = system: P. aeruginosa ATCC 27853 and ATCC 25668 strains; test: microbe, parasite or virus in culture; format: cell-based, Pseudomonas aeruginosa; details: Pseudomonas aeruginosa, 24 h
Procedure: as §4, §5

[8] = system: P. aeruginosa ATCC 25668, ATCC 27853, and PAO1-L strains; test: microbe, parasite or virus in culture; format: cell-based, Pseudomonas aeruginosa; details: Pseudomonas aeruginosa; LB medium, 24 h, 37 °C, OD600; same value for all three strains; triplicate, at least three experiments
Procedure: as §4, §5

[9] = concentrations from 8 to 1 MIC (1 MIC = 2.2 µM peptides, 2.14 µM tobramycin), 24 h static, 37 °C, stated for both strains

Structure (SMILES) | remaining at 0.5 h, 1 mg/mL (P. aeruginosa elastase) [%] | remaining at 5 h, 1 mg/mL [1] [%] | biofilm biomass vs untreated controls (biofilm formation) ([2]; 1/4 MIC) | biofilm biomass vs untreated controls (biofilm formation) ([2]; 1/8 MIC) | decrement in biofilm biomass vs untreated controls (inhibition of biofilm formation) [2, 9] | biofilm biomass vs untreated controls (biofilm formation) ([3]; 1/4 MIC) | biofilm biomass vs untreated controls (biofilm formation) ([3]; 1/8 MIC) | decrement in biofilm biomass vs untreated controls (inhibition of biofilm formation) [3, 9] | reduction of pre-formed biofilm biomass at all tested concentrations [4] | reduction of pre-formed biofilm biomass at all tested concentrations [5] | MBC [6] [µM] | MBC [7] [µM] | MIC [8] [µM]
CC[C@H](C)[C@H](NC(=O)[C@H](CCCCN)NC(=O)[C@H](CCC(=O)O)NC(=O)[C@H](CCCCN)NC(=O)[C@H](CO)NC(=O)[C@H](CCCCN)NC(=O)[C@H](CCCNC(=N)N)NC(=O)[C@H](Cc1ccccc1)NC(=O)[C@H](Cc1ccccc1)NC(=O)[C@H](CC(=O)O)NC(=O)CNC(=O)[C@H](CC(C)C)NC(=O)[C@@H](N)CC(C)C)C(=O)NCC(=O)N[C@@H](CCCCN)C(=O)N[C@@H](CCC(=O)O)C(=O)N[C@@H](Cc1ccccc1)C(=O)N[C@@H](CCCCN)C(=O)N[C@@H](CCCNC(=N)N)C(=O)N[C@H](C(=O)N[C@H](C(=O)N[C@@H](CCC(N)=O)C(=O)N[C@@H](CCCNC(=N)N)C(=O)N[C@H](C(=O)N[C@@H](CCCCN)C(=O)N[C@@H](CC(=O)O)C(=O)N[C@@H](Cc1ccccc1)C(=O)N[C@@H](CC(C)C)C(=O)N[C@@H](CCCNC(=N)N)C(=O)N[C@@H](CC(N)=O)C(=O)N[C@@H](CC(C)C)C(=O)N[C@H](C(=O)N1CCC[C@H]1C(=O)N[C@@H](CCCNC(=N)N)C(=O)N[C@H](C(=O)N[C@@H](CCC(=O)O)C(=O)N[C@@H](CO)C(=O)O)[C@@H](C)O)C(C)C)[C@@H](C)CC)C(C)C)[C@@H](C)CC [LL-37, reference compound] | ~0.2 | 8.7 |  |  |  |  |  |  |  |  |  |  | 
NC[C@H]1O[C@H](O[C@H]2[C@H](O)[C@@H](O[C@H]3O[C@H](CO)[C@@H](O)[C@H](N)[C@H]3O)[C@H](N)C[C@@H]2N)[C@H](N)C[C@@H]1O [Tobramycin, reference compound] |  |  | not affected | not significantly different | ~ 99.9% | significantly higher | not significantly different | ~ 99.9% | not efficient | not efficient | 8.56 (≈ 4 µg/mL) | 4.29 (≈ 2.01 µg/mL) | 2.14 (≈ 1 µg/mL)
